Assay results reported in US20250026769A1, “PAPD5 INHIBITORS AND METHODS OF USE THEREOF” (The Children's Medical Center Corporation, priority 2021, published 2025).

Target: T1, rPAPD5 (Homo sapiens, UniProt Q8NDF8)
T1 construct: made in house
Test: differential scanning fluorimetry (DSF) binding and stabilization of rPAPD5
Settings: 10 μM test compound; shift vs DMSO control; read-out: ΔTm (Table 2, starred: the compound was tested at 10 μM)
Description: Binding and stabilization of rPAPD5 by test compounds was determined using differential scanning fluorimetry (DSF). DSF assays were performed to determine protein melting temperature using an indicator dye SYPRO orange (Thermo Fisher Scientific, S6651) diluted 1:5000 in […] of buffer containing […], […] (Jena Biosciences), 25 mM Tris-HCl, 5 mM MgCl2, 50 mM KCl. […] DMSO was used as a negative control. Each curve was an average of three measurements and Thermal Shift software (Thermo Fisher Scientific, 4466038) was used for analysis. […] The change in melting temperature (ΔTm) is in reference to the DMSO control. Referring to Table 2, “+” refers to ΔTm values below 1° C., “++” refers to ΔTm values from 1 to 5° C., and “+++” refers to ΔTm values above 5° C.

T1 sequence (Q8NDF8 68-698 isoform Q8NDF8-5 limits assumed): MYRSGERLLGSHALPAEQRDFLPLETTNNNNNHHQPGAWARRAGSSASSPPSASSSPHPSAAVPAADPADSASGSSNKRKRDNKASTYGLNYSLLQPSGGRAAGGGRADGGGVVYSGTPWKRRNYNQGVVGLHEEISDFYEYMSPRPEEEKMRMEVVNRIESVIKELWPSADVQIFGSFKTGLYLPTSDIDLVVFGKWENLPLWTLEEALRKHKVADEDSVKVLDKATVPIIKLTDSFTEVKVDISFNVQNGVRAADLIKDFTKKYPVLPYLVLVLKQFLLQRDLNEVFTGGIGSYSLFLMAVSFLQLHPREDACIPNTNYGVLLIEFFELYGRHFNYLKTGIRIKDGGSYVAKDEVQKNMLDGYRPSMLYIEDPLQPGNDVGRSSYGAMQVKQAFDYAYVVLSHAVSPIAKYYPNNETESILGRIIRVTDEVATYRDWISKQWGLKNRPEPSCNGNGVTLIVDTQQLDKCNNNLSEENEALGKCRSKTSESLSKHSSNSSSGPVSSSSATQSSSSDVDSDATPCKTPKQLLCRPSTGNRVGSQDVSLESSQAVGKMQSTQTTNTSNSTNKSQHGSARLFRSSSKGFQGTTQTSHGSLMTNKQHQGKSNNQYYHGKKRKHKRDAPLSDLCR

ΔTm at 10 µM, > 5 °C:
O=C(O)c1ccccc1Nc1c(S(=O)(=O)N2CCN(C(=O)OCc3ccccc3)CC2)cnc2ccc(Cl)cc12 [Compound 123A-CBZ]

Same assay, conditions: 100 μM test compound; shift vs DMSO control; read-out: ΔTm at 100 μM

ΔTm at 100 µM, 1 to 5 °C:
O=C(O)c1c(Nc2c(S(=O)(=O)N3CCOCC3)cnc3ccc(Cl)cc23)cccc1N1CCC1 [Compound 87A-Cl]
O=C(O)c1c(Nc2c(S(=O)(=O)N3CCOCC3)cnc3ccc(Cl)cc23)cccc1-c1ccn[nH]1 [Compound 91A-Cl]
COC(=O)c1ccccc1Nc1c(S(=O)(=O)N2CCOCC2)cnc2ccc(Cl)cc12 [Compound 124A]
O=C(O)c1c(F)cccc1Nc1c(S(=O)(=O)N2CCOCC2)cnc2ccc(Cl)cc12 [Compound 125A]
Cc1ccc(-c2ccc3ncc(S(=O)(=O)N4CCOCC4)c(Nc4ccccc4C(=O)O)c3c2)s1 [Compound 136A]
O=C(O)c1ccccc1Nc1c(S(=O)(=O)N2CCOCC2)cnc2ccc(-c3cc[nH]n3)cc12 [Compound 137A]
N#Cc1csc(-c2ccc3ncc(S(=O)(=O)N4CCOCC4)c(Nc4ccccc4C(=O)O)c3c2)c1 [Compound 139A]
O=C(O)c1ccccc1Nc1c(S(=O)(=O)N2CCOCC2)cnc2ccc(-c3sccc3Cl)cc12 [Compound 140A]
CN(C)c1ncc(-c2ccc3ncc(S(=O)(=O)N4CCOCC4)c(Nc4ccccc4C(=O)O)c3c2)cn1 [Compound 142A]
N=c1cc(C(F)(F)F)c(-c2ccc3ncc(S(=O)(=O)N4CCOCC4)c(Nc4ccccc4C(=O)O)c3c2)c[nH]1 [Compound 143A]
O=C(O)c1ccccc1Nc1c(S(=O)(=O)N2CCOCC2)cnc2ccc(-c3cnn(C4CCOC4)c3)cc12 (centres unmarked) [Compound 148A-R]
O=C(O)c1ccccc1Nc1c(S(=O)(=O)N2CCOCC2)cnc2ccc(-c3cnn4cccnc34)cc12 [Compound 149A]
C/N=c1/ccc(-c2ccc3ncc(S(=O)(=O)N4CCOCC4)c(Nc4ccccc4C(=O)O)c3c2)c[nH]1 [Compound 151A]
CN(C)c1cncc(-c2ccc3ncc(S(=O)(=O)N4CCOCC4)c(Nc4ccccc4C(=O)O)c3c2)c1 [Compound 152A, 2-[[6-[5-(dimethylamino)-3-pyridyl]-3-morpholinosulfonyl-4-quinolyl]amino]benzoic acid]
O=C(O)c1ccccc1Nc1c(S(=O)(=O)N2CCOCC2)cnc2ccc(-c3cncc(C4CC4)c3)cc12 [Compound 153A, 2-[[6-(5-cyclopropyl-3-pyridyl)-3-morpholinosulfonyl-4-quinolyl]amino]benzoic acid]
O=C(O)c1ccccc1Nc1c(S(=O)(=O)N2CCOCC2)cnc2ccc(-c3cnc4[nH]ncc4c3)cc12 [Compound 155A, 2-[[3-morpholinosulfonyl-6-(1H-pyrazolo[3,4-b]pyridin-5-yl)-4-quinolyl]amino]benzoic acid]
O=C(O)c1ccccc1Nc1c(S(=O)(=O)N2CCOCC2)cnc2ccc(-c3ccc(Oc4ccccc4)nc3)cc12 [Compound 162A, 2-[[3-morpholinosulfonyl-6-(6-phenoxy-3-pyridyl)-4-quinolyl]amino]benzoic acid]
O=C(O)c1ccccc1Nc1c(S(=O)(=O)N2CCOCC2)cnc2ccc(-c3ccc(N4CCOCC4)nc3)cc12 [Compound 163A, 2-[[6-(6-morpholino-3-pyridyl)-3-morpholinosulfonyl-4-quinolyl]amino]benzoic acid]
N#Cc1ccc(-c2ccc3ncc(S(=O)(=O)N4CCOCC4)c(Nc4ccccc4C(=O)O)c3c2)cn1 [Compound 164A, 2-[[6-(6-cyano-3-pyridyl)-3-morpholinosulfonyl-4-quinolyl]amino]benzoic acid]
CN1CCN(c2ccc(-c3ccc4ncc(S(=O)(=O)N5CCOCC5)c(Nc5ccccc5C(=O)O)c4c3)cn2)CC1 [Compound 165A, 2-[[6-[6-(4-methylpiperazin-1-yl)-3-pyridyl]-3-morpholinosulfonyl-4-quinolyl]amino]benzoic acid]
COc1ncc(-c2ccc3ncc(S(=O)(=O)N4CCOCC4)c(Nc4ccccc4C(=O)O)c3c2)cc1N [Compound 166A, 2-[[6-(5-amino-6-methoxy-3-pyridyl)-3-morpholinosulfonyl-4-quinolyl]amino]benzoic acid]
O=C(O)c1ccccc1Nc1c(S(=O)(=O)N2CCOCC2)cnc2ccc(-c3cnccc3C(F)(F)F)cc12 [Compound 168A, 2-[[3-morpholinosulfonyl-6-[4-(trifluoromethyl)-3-pyridyl]-4-quinolyl]amino]benzoic acid]

ΔTm at 100 µM, < 0 °C:
O=C(O)c1ccccc1Nc1c(S(=O)(=O)N2CCOCC2)cnc2ccc(-c3cc4cc(Cl)ccc4s3)cc12 [Compound 146A-C1]

ΔTm at 100 µM, > 5 °C:
O=C(O)c1ccccc1Nc1c(S(=O)(=O)N2CCNCC2)cnc2ccc(Cl)cc12 [Compound 123A]
O=C(O)c1c(Nc2c(S(=O)(=O)N3CCOCC3)cnc3ccc(Cl)cc23)cccc1C(O)(O)C(F)(F)F [Compound 127A-1]
O=C(O)c1ccccc1Nc1c(S(=O)(=O)N2CCOCC2)cnc2ccc(OC(F)(F)F)cc12 [Compound 131A]
O=C(O)c1ccccc1Nc1c(S(=O)(=O)N2CCC(F)(F)CC2)cnc2ccc(OC(F)(F)F)cc12 [Compound 132A]
O=C(O)c1c(O)cccc1Nc1c(S(=O)(=O)N2CCC(F)(F)CC2)cnc2ccc(OC(F)(F)F)cc12 [Compound 133A]
O=C(O)c1ccccc1Nc1c(-c2cnco2)cnc2ccc(Cl)cc12 [Compound 134A]
O=C(O)c1ccccc1Nc1c(S(=O)(=O)N2CC(CO)(CCl)C2)cnc2ccc(Cl)cc12 [Compound 135A-BP]
O=C(O)c1ccccc1Nc1c(S(=O)(=O)N2CC3(COC3)C2)cnc2ccc(Cl)cc12 [Compound 135A]
CC(=O)c1ccc(-c2ccc3ncc(S(=O)(=O)N4CCOCC4)c(Nc4ccccc4C(=O)O)c3c2)s1 [Compound 138A]
O=C(O)c1ccccc1Nc1c(S(=O)(=O)N2CCOCC2)cnc2ccc(-c3cn(S(=O)(=O)c4ccccc4)c4ncccc34)cc12 [Compound 144A]
COCCn1cc(-c2ccc3ncc(S(=O)(=O)N4CCOCC4)c(Nc4ccccc4C(=O)O)c3c2)cn1 [Compound 145A]
O=C(O)c1ccccc1Nc1c(S(=O)(=O)N2CCOCC2)cnc2ccc(-c3c[nH]c4ncc(C(F)(F)F)cc34)cc12 [Compound 147A]
Cn1cc(-c2ccc3ncc(S(=O)(=O)N4CCOCC4)c(Nc4ccccc4C(=O)O)c3c2)ccc1=O [Compound 150A]
O=C(O)c1ccccc1Nc1c(S(=O)(=O)N2CCOCC2)cnc2ccc(-c3cncnc3)cc12 [Compound 154A, 2-[(3-morpholinosulfonyl-6-pyrimidin-5-yl-4-quinolyl)amino]benzoic acid]
Cc1c[nH]c2ncc(-c3ccc4ncc(S(=O)(=O)N5CCOCC5)c(Nc5ccccc5C(=O)O)c4c3)cc12 [Compound 156A, 2-[[6-(3-methyl-TH-pyrrolo[2,3-b]pyridin-5-yl)-3-morpholinosulfonyl-4-quinolyl]amino]benzoic acid]
O=C(O)c1ccccc1Nc1c(S(=O)(=O)N2CCOCC2)cnc2ccc(-c3ccnc4[nH]ccc34)cc12 [Compound 159A, 2-[[3-morpholinosulfonyl-6-(1H-pyrrolo[2,3-b]pyridin-4-yl)-4-quinolyl]amino]benzoic acid]
O=C(O)c1ccccc1Nc1c(S(=O)(=O)N2CCOCC2)cnc2ccc(-c3cncc4[nH]ccc34)cc12 [Compound 160A, 2-[[3-morpholinosulfonyl-6-(1H-pyrrolo[2,3-c]pyridin-4-yl)-4-quinolyl]amino]benzoic acid]

ΔTm at 100 µM, < 1 °C:
O=C(O)c1c(Br)cccc1Nc1c(S(=O)(=O)N2CCOCC2)cnc2ccc(Cl)cc12 [Compound 128A-BR]
CC(C)n1nc(C(F)(F)F)cc1-c1ccc2ncc(S(=O)(=O)N3CCOCC3)c(Nc3ccccc3C(=O)O)c2c1 [Compound 141A]
O=C(O)c1ccccc1Nc1c(S(=O)(=O)N2CCOCC2)cnc2ccc(-c3ccc(N4CCCC4)nc3)cc12 [Compound 157A, 2-[[3-morpholinosulfonyl-6-(6-pyrrolidin-1-yl-3-pyridyl)-4-quinolyl]amino]benzoic acid]
Cc1cc(OC(C)C)ncc1-c1ccc2ncc(S(=O)(=O)N3CCOCC3)c(Nc3ccccc3C(=O)O)c2c1 [Compound 161A, 2-[[6-(6-isopropoxy-4-methyl-3-pyridyl)-3-morpholinosulfonyl-4-quinolyl]amino] benzoic acid]
CNC(=O)c1ccc(-c2ccc3ncc(S(=O)(=O)N4CCOCC4)c(Nc4ccccc4C(=O)O)c3c2)cn1 [Compound 167A, 2-[[6-[6-(methylcarbamoyl)-3-pyridyl]-3-morpholinosulfonyl-4-quinolyl]amino]benzoic acid]
O=C(O)c1ccccc1Nc1c(S(=O)(=O)N2CCOCC2)cnc2ccc(-c3ccnc(N4CCNCC4)c3)cc12 [Compound 169A, 2-[[3-morpholinosulfonyl-6-(2-piperazin-1-yl-4-pyridyl)-4-quinolyl]amino]benzoic acid]
